According to PubChem BioAssay (NCI):
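The compound was tested at five concentrations on cells cultured in 96-well plates, with a 48-hour exposure period. TGI denotes the concentration required for complete inhibition of growth.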

Columns and labels:
Assay in all cases: growth of human tumour cells (NCI), 48 h
786-0 renal = test system: 786-0 renal
A498 renal = test system: A498 renal
A549 NSCLC = test system: A549 NSCLC
ACHN renal = test system: ACHN renal
BT-549 breast = test system: BT-549 breast
CAKI-1 renal = test system: CAKI-1 renal
CCRF-CEM leukemia = test system: CCRF-CEM leukemia
COLO 205 colon = test system: COLO 205 colon
DU-145 prostate = test system: DU-145 prostate
EKVX NSCLC = test system: EKVX NSCLC
HCC-2998 colon = test system: HCC-2998 colon
HCT-116 colon = test system: HCT-116 colon
HCT-15 colon = test system: HCT-15 colon
HL-60(TB) leukemia = test system: HL-60(TB) leukemia
HOP-62 NSCLC = test system: HOP-62 NSCLC
HOP-92 NSCLC = test system: HOP-92 NSCLC
HS 578T breast = test system: HS 578T breast
HT29 colon = test system: HT29 colon
IGROV1 ovarian = test system: IGROV1 ovarian
KM12 colon = test system: KM12 colon
LOX IMVI melanoma = test system: LOX IMVI melanoma
M14 melanoma = test system: M14 melanoma
MALME-3M melanoma = test system: MALME-3M melanoma
MCF7 breast = test system: MCF7 breast
MDA-MB-231 breast = test system: MDA-MB-231 breast
MDA-MB-435 = test system: MDA-MB-435
MDA-N = test system: MDA-N
MOLT-4 leukemia = test system: MOLT-4 leukemia
NCI-H23 lung = test system: NCI-H23 lung
NCI-H460 lung = test system: NCI-H460 lung
NCI-H522 lung = test system: NCI-H522 lung
NCI/ADR-RES ovarian = test system: NCI/ADR-RES ovarian
OVCAR-3 ovarian = test system: OVCAR-3 ovarian
OVCAR-4 ovarian = test system: OVCAR-4 ovarian
OVCAR-5 ovarian = test system: OVCAR-5 ovarian
OVCAR-8 ovarian = test system: OVCAR-8 ovarian
PC-3 prostate = test system: PC-3 prostate
RPMI-8226 leukemia = test system: RPMI-8226 leukemia
RXF 393 renal = test system: RXF 393 renal
SF-268 CNS = test system: SF-268 CNS
SF-295 CNS = test system: SF-295 CNS
SF-539 CNS = test system: SF-539 CNS
SK-MEL-28 melanoma = test system: SK-MEL-28 melanoma
SK-MEL-5 melanoma = test system: SK-MEL-5 melanoma
SK-OV-3 ovarian = test system: SK-OV-3 ovarian
SN12C renal = test system: SN12C renal
SNB-19 CNS = test system: SNB-19 CNS
SW-620 colon = test system: SW-620 colon
T-47D breast = test system: T-47D breast
TK-10 renal = test system: TK-10 renal
U251 CNS = test system: U251 CNS
UACC-257 melanoma = test system: UACC-257 melanoma
UACC-62 melanoma = test system: UACC-62 melanoma
K-562 leukemia = test system: K-562 leukemia
NCI-H226 lung = test system: NCI-H226 lung
SK-MEL-2 melanoma = test system: SK-MEL-2 melanoma
SNB-75 CNS = test system: SNB-75 CNS
SR leukemia = test system: SR leukemia
UO-31 renal = test system: UO-31 renal

With `CC(=O)OCC1OC(O[C@@H]2C[C@H]3C(C)(C)[C@@H](OC(C)=O)CC[C@]3(C)[C@H]3CC[C@]45C[C@]4(CC[C@H]5[C@@H](C)C[C@@H](O)[C@H](O)C(C)(C)F)[C@@]32C)C(O)C(O)C1O` (stereo not given in full) the TGI (786-0 renal) was 3.24 µM, the TGI (A498 renal) was 76.5 µM and the TGI (A549 NSCLC) was 3.12 µM. For the same compound, the TGI (ACHN renal) was greater than 100 µM, the TGI (BT-549 breast) was 3.4 µM and the TGI (CAKI-1 renal) was greater than 100 µM. The TGI (CCRF-CEM leukemia) was 3.57 µM, the TGI (COLO 205 colon) was 3.38 µM and the TGI (DU-145 prostate) was greater than 100 µM. It also gave a TGI (EKVX NSCLC) of 3.21 µM, a TGI (HCC-2998 colon) greater than 100 µM and a TGI (HCT-116 colon) of 2.95 µM. The TGI (HCT-15 colon) was 5.94 µM, the TGI (HL-60(TB) leukemia) was 2.75 µM and the TGI (HOP-62 NSCLC) was greater than 100 µM. It also gave a TGI (HOP-92 NSCLC) of 3.71 µM, a TGI (HS 578T breast) of 5.85 µM and a TGI (HT29 colon) of 3.05 µM. For the same compound, the TGI (IGROV1 ovarian) was 4.45 µM, the TGI (KM12 colon) was greater than 100 µM and the TGI (LOX IMVI melanoma) was 4.33 µM. It also gave a TGI (M14 melanoma) of 3.28 µM, a TGI (MALME-3M melanoma) of 3.48 µM and a TGI (MCF7 breast) greater than 100 µM. The TGI (MDA-MB-231 breast) was 48.2 µM, the TGI (MDA-MB-435) was 31.6 µM and the TGI (MDA-N) was 3.09 µM. For the same compound, the TGI (MOLT-4 leukemia) was 4.28 µM, the TGI (NCI-H23 lung) was 4.56 µM and the TGI (NCI-H460 lung) was greater than 100 µM. For the same compound, the TGI (NCI-H522 lung) was 4.82 µM, the TGI (NCI/ADR-RES ovarian) was 29.6 µM and the TGI (OVCAR-3 ovarian) was greater than 100 µM. For the same compound, the TGI (OVCAR-4 ovarian) was greater than 100 µM, the TGI (OVCAR-5 ovarian) was 2.81 µM and the TGI (OVCAR-8 ovarian) was 6.1 µM. For the same compound, the TGI (PC-3 prostate) was 91.5 µM, the TGI (RPMI-8226 leukemia) was 4.24 µM and the TGI (RXF 393 renal) was greater than 100 µM. The TGI (SF-268 CNS) was 3.05 µM, the TGI (SF-295 CNS) was greater than 100 µM and the TGI (SF-539 CNS) was 3.51 µM. For the same compound, the TGI (SK-MEL-28 melanoma) was 3.3 µM, the TGI (SK-MEL-5 melanoma) was 3.2 µM and the TGI (SK-OV-3 ovarian) was greater than 100 µM. The TGI (SN12C renal) was 3.23 µM, the TGI (SNB-19 CNS) was 3.1 µM and the TGI (SW-620 colon) was 4.85 µM. The TGI (T-47D breast) was greater than 100 µM, the TGI (TK-10 renal) was greater than 100 µM and the TGI (U251 CNS) was 41.1 µM. It also gave a TGI (UACC-257 melanoma) greater than 100 µM and a TGI (UACC-62 melanoma) greater than 100 µM.
Compound `CCNC12CCC(C1)C(C)(C)C2=O` (stereo not given) has a TGI (786-0 renal) greater than 100 µM, a TGI (A498 renal) greater than 100 µM and a TGI (A549 NSCLC) greater than 100 µM. For the same compound, the TGI (ACHN renal) was greater than 100 µM, the TGI (BT-549 breast) was greater than 100 µM and the TGI (CAKI-1 renal) was greater than 100 µM. For the same compound, the TGI (CCRF-CEM leukemia) was greater than 100 µM, the TGI (COLO 205 colon) was greater than 100 µM and the TGI (DU-145 prostate) was greater than 100 µM. The TGI (EKVX NSCLC) was greater than 100 µM, the TGI (HCC-2998 colon) was greater than 100 µM and the TGI (HCT-116 colon) was greater than 100 µM. The TGI (HCT-15 colon) was greater than 100 µM, the TGI (HL-60(TB) leukemia) was greater than 100 µM and the TGI (HOP-62 NSCLC) was greater than 100 µM. It also gave a TGI (HOP-92 NSCLC) greater than 100 µM, a TGI (IGROV1 ovarian) greater than 100 µM and a TGI (K-562 leukemia) greater than 100 µM. It also gave a TGI (KM12 colon) greater than 100 µM, a TGI (LOX IMVI melanoma) greater than 100 µM and a TGI (M14 melanoma) greater than 100 µM. The TGI (MCF7 breast) was greater than 100 µM, the TGI (MDA-MB-435) was greater than 100 µM and the TGI (MDA-N) was greater than 100 µM. The TGI (MOLT-4 leukemia) was greater than 100 µM, the TGI (NCI-H226 lung) was greater than 100 µM and the TGI (NCI-H23 lung) was greater than 100 µM. The TGI (NCI-H460 lung) was greater than 100 µM, the TGI (NCI/ADR-RES ovarian) was greater than 100 µM and the TGI (OVCAR-3 ovarian) was greater than 100 µM. It also gave a TGI (OVCAR-4 ovarian) greater than 100 µM, a TGI (OVCAR-5 ovarian) greater than 100 µM and a TGI (OVCAR-8 ovarian) greater than 100 µM. For the same compound, the TGI (PC-3 prostate) was greater than 100 µM, the TGI (RPMI-8226 leukemia) was greater than 100 µM and the TGI (RXF 393 renal) was greater than 100 µM. The TGI (SF-295 CNS) was greater than 100 µM, the TGI (SK-MEL-2 melanoma) was greater than 100 µM and the TGI (SK-MEL-28 melanoma) was greater than 100 µM. The TGI (SK-MEL-5 melanoma) was greater than 100 µM, the TGI (SK-OV-3 ovarian) was greater than 100 µM and the TGI (SN12C renal) was greater than 100 µM. For the same compound, the TGI (SNB-19 CNS) was greater than 100 µM, the TGI (SNB-75 CNS) was greater than 100 µM and the TGI (SR leukemia) was greater than 100 µM. It also gave a TGI (SW-620 colon) greater than 100 µM, a TGI (T-47D breast) greater than 100 µM and a TGI (TK-10 renal) greater than 100 µM. For the same compound, the TGI (U251 CNS) was greater than 100 µM, the TGI (UACC-257 melanoma) was greater than 100 µM and the TGI (UACC-62 melanoma) was greater than 100 µM. It also gave a TGI (UO-31 renal) greater than 100 µM.
